Measurements taken from US8153773B2, “Synthesis and use of anti-reverse phosphorothioate analogs of the messenger RNA cap” (Board of Supervisors of Louisiana State University and …, priority 2007, dated 2012).

Key:
[1] = molecular target: T1, DcpS (Homo sapiens, UniProt Q96C86); experiment: Enzymatic hydrolysis by human DcpS; format: biochemical; parameters: key: the analogs assigned as resistant remained completely undigested under the applied conditions; the analogs assigned as hydrolyzed were hydrolyzed by DcpS with efficiency comparable to the respective unmodified parent compound; conditions: conditions giving complete degradation of unmodified parent within 40-90 min, RP HPLC
T1 sequence (Q96C86 1-337): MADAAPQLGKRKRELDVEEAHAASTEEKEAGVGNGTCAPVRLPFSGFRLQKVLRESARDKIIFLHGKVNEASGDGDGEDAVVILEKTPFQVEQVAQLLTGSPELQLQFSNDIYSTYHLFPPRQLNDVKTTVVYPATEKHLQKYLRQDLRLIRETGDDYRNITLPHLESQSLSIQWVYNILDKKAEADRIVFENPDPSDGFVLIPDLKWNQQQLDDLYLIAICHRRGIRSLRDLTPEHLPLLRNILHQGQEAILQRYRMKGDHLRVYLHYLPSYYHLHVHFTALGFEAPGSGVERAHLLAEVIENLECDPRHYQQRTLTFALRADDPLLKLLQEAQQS
Method: Human and nematode DcpS were expressed in Escherichia coli according to the procedures described previously (L. S. Cohen et al., “Nematode m7 GpppG and m3(2,2,7)GpppG decapping: activities in Ascaris embryos and characterization of C. elegans scavenger DcpS,” RNA, vol. 10, pp. 1609-1624 (2004)). Both proteins were stored at −80° C. in 20 mM Tris buffer, pH 7.5, containing 50 mM KCl, 0.2 mM EDTA, 1 mM DTT, 0.5 mM PMSF, and 20% glycerol. An appropriate cap analog at 1 mM concentration was treated with 5.0 or 7.0 μl of DcpS (from human or C. elegans, respectively) in 500 μl of 50 mM TRIS buffer, pH=7.9, containing 20 mM of MgCl2 and 60 mM of (NH4)2SO4 at 37° C. for 60-90 min. Every 15-20 min a 100 μl sample was collected from the reaction mixture and deactivated by incubation in 90° C. for 3 min. Collected samples were analyzed without further treatment by analytical RP HPLC using a linear gradient of methanol in 0.1 M KH2PO4, pH=6.0, from 0-50% within 15 min and UV-detection at 260 nm.
The new series of S-analogs were subjected to in vitro enzymatic hydrolysis catalyzed by DcpS from both human and C. elegans sources. In all experiments, the corresponding unmodified cap analog was used as a positive control, i.e., m^7GpppG for non-ARCA S-analogs and m2^7,2′-OGpppG for S-ARCAs. The amount of DcpS enzyme was optimized to provide complete degradation of the control substrate within 40-90 min. The samples collected from reaction mixtures at various time intervals were analyzed by RP HPLC (as described in Materials and Methods).
In Table 4, cap analogs at 4 μM concentration were subjected to enzymatic digestion by DcpS in conditions leading to complete degradation of the unmodified parent compound (i.e. m^7GpppG for non-ARCA S-analogs and m2^7,2′-OGpppG for ARCAs) within 40-90 min. Samples collected from reaction mixtures at various time intervals were analysed by RP HPLC with UV detection at 260 nm as described in Materials and Methods. […] The result was unchanged even if the reaction time was extended to 24 h, various amounts of enzyme were used, and composition of the reaction buffer was modified.

[2] = tested on: HC11 cells; experiment: Polysomal distribution of capped luciferase mRNA in HC11 cells; format: cell-based, mouse; conditions: HC11 cells lysed 4 h after electroporation, sucrose gradient
Method: To separate ribosomal subunits and initiation complexes, 4×10^6 HC11 cells were treated for 2 min with ice-cold PBS containing 0.1 mg/ml cycloheximide, washed twice with the same medium, and lysed in 600 μl of 0.3 M NaCl, 15 mM Tris-HCl (pH 7.6), 15 mM MgCl2, 1% Triton X-100, 1 mg/ml heparin, and 0.1 mg/ml cycloheximide. After centrifugation at 14,000×g for 10 min, the supernatant was layered on a 15-45% sucrose gradient in the same buffer but lacking Triton X-100 and centrifuged in a Beckman SW41 Ti rotor at 38,000 rpm at 4° C. for 2 h. Gradients were fractionated with continuous monitoring of absorbance at 260 nm. RNA from each fraction (1 ml) was isolated and analyzed by real time PCR.
We used an independent method to validate the observation that m2^7,2′-OGppspG-capped mRNAs were translated more efficiently, namely, their polysomal distribution (FIGS. 9A-9E). An increase in the rate of initiation relative to elongation or termination results in a shift of the mRNA from lighter to heavier polysomes. See H. Lodish, “Model for the regulation of mRNA translation applied to haemoglobin synthesis,” Nature, vol. 251, pp. 385-388 (1974). The type of cap structure is not expected to affect the rate of elongation. Thus, a shift to higher polysomes indicates faster initiation.
Luc A60 mRNA capped with m^7 Gp3G, m2^7,2′-OGp3G or m2^7,2′-OGppspG (D2) was electroporated into HC11 cells. […]

[3] = tested on: rabbit reticulocyte lysate; experiment: Cell-free translation of capped Luc-A60 mRNA in the rabbit reticulocyte lysate system; format: biochemical; conditions: data not shown
Excerpt: Luc-A60 mRNA capped with m2^7,2′-OGppspG (D1) and m2^7,2′-OGppspG (D2) was translated 2.8- and 5.1-fold more efficiently than m^7Gp3G-capped mRNA, respectively (FIG. 8 and Table 2). For cell-free translation in the rabbit reticulocyte lysate system, Luc-A60 mRNAs capped with m2^7,2′-OGppspG (D1) and m2^7,2′-OGppspG (D2) were translated only 2.3-fold more efficiently than Luc-A60 mRNA capped with m^7Gp3G (data not shown).

Row | Compound | Resistance to enzymatic hydrolysis by DcpS (human) [1] | polysomal distribution of capped Luc A60 mRNA [2] | translational efficiency relative to m^7Gp3G-capped Luc-A60 mRNA [3]
1 | CO[C@@H]1[C@H](O)[C@@H](COP(=O)(O)OP(=O)([O-])OP(=O)(O)OC[C@H]2O[C@@H](n3cnc4c(=O)[nH]c(N)nc43)[C@H](O)[C@@H]2O)O[C@H]1n1c[n+](C)c2c(O)nc(N)nc21 [m2^7,2′-OGpppG, reference compound] | hydrolyzed | shifted to higher polysomes | –
2 | m2^7,2′-OGpppsG (D1) [Compound 4a] | hydrolyzed | – | –
3 | m2^7,2′-OGpppsG (D2) [Compound 4b] | hydrolyzed | – | –
4 | m2^7,2′-OGppspG (D1) [Compound 5a] | hydrolyzed | – | 2.3 fold
5 | m2^7,2′-OGppspG (D2) [Compound 5b] | hydrolyzed | shifted to even higher polysomes | 2.3 fold
6 | m2^7,2′-OGpsppG (D1) [Compound 6a] | resistant | – | –
7 | m2^7,2′-OGpsppG (D2) [Compound 6b] | resistant | – | –
